Measured values as given in publication PMC6857856, “Characterization of two thermophilic cellulases from Talaromyces leycettanus JCM12802 and their synergistic action on cellulose hydrolysis” (PLoS ONE, 2019).

Biological target: T1, TlCel5A (Evansstolkia leycettana, UniProt A0A3G5ECP2)
T1 construct: mature protein, 18-residue signal peptide removed (precursor 409 residues); catalytic domain, linker, C-terminal CBM; pPIC9, secreted from Pichia pastoris GS115, purified
Assay: HPAEC analysis of hydrolysis products
Assay type: biochemical
Conditions: 60 °C; 200 μg substrate in 1 mL, 0.05 U enzyme

T1 sequence (A0A3G5ECP2 19-409): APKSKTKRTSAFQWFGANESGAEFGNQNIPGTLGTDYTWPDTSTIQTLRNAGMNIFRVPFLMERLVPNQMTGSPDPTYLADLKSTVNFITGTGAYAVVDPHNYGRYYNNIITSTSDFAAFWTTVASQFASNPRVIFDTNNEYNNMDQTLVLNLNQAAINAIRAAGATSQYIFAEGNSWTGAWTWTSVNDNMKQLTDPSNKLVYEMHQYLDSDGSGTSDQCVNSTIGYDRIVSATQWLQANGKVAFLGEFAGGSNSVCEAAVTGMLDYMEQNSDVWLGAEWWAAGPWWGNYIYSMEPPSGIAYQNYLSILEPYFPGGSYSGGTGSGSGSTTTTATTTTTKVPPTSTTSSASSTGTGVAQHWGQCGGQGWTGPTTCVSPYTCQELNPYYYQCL

For `OC[C@H]1O[C@@H](O[C@H]2[C@H](O)[C@@H](O)[C@H](O[C@H]3[C@H](O)[C@@H](O)[C@H](O[C@H]4[C@H](O)[C@@H](O)[C@H](O[C@H]5[C@H](O)[C@@H](O)[C@H](O[C@H]6[C@H](O)[C@@H](O)C(O)O[C@@H]6CO)O[C@@H]5CO)O[C@@H]4CO)O[C@@H]3CO)O[C@@H]2CO)[C@H](O)[C@@H](O)[C@@H]1O` (some centres unmarked) [cellohexaose], the “HPAEC analysis of hydrolysis products” value was “cellohexaose into cellobiose, cellotriose, cellotetraose and cellopentaose”.
`OC[C@H]1O[C@@H](O[C@H]2[C@H](O)[C@@H](O)[C@H](O[C@H]3[C@H](O)[C@@H](O)[C@H](O[C@H]4[C@H](O)[C@@H](O)[C@H](O[C@H]5[C@H](O)[C@@H](O)C(O)O[C@@H]5CO)O[C@@H]4CO)O[C@@H]3CO)O[C@@H]2CO)[C@H](O)[C@@H](O)[C@@H]1O` (some centres unmarked) [cellopentaose] was tested, and the “HPAEC analysis of hydrolysis products” value was “cleaved cellopentaose into mainly cellobiose and cellotriose and low amounts of cellotetraose”.
